Experimental data reported in patent US20250129329A1, “CULTURE MEDIUM FOR HEPATOMA ORGANOID CULTURE, HEPATOMA ORGANOID CULTURE METHOD, AND APPLICATION THEREOF” (PRECEDO PHARMACEUTICALS CO., LTD, priority 2021, published 2025).

Key:
Assay type in all cases: cell-based, human
[1] = system: hepatoma organoids (sample GL-006); test: Drug screening on hepatoma organoids, CellTiter-Glo viability and microscopy (Example 5); details: for growth of organoids after drug treatment (photos): after 5 days of drug treatment, microscope photos, FIG. 5A; for inhibitory effect on the growth of hepatoma organoids (drug inhibition rate): two concentrations (1 and 0.1 mM stocks diluted 1000 times), 5 days, CellTiter-Glo, FIG. 5B
Method: Primary liver cancer cells were isolated from liver cancer intraoperative sample (GL-006) according to the method described in Section (2), Example 1, and were cultured to obtain organoids by using HC-3 culture medium until the diameters of hepatoma organoids exceeded 50 μm, which were then used for drug screening.
Prepare Three drugs with two concentration gradients were prepared according to the table below (Bortezomib, Aclarubicin, and Doxorubicin; all purchased from MCE) and store for use.
The prepared drugs were taken out and placed at room temperature. The drugs were diluted 1000 times with HC-3 culture medium for later use. The organoids cultured and obtained according to step (1) were taken out from the incubator, the culture mediums were removed from the wells, and the culture mediums containing drugs were slowly added into the wells along the well wall. After the addition of drug, disinfect the surface of the 96-well plate was sterilized and then was transferred to the incubator for further cultivation. After 5 days, the viability of organoids were measured.
CellTiter-Glo luminescent reagent (purchased from Promega) was taken out from a 4° C. refrigerator, and 10 mL of the reagent was added into the loading slot; the 96-well plate for testing was taken out from the incubator, and 20 μL CellTiter-Glo luminescent reagent was added into each well. After standing for 10 minutes followed by mixing well, the test was conducted by using a multi-functional microplate reader (Envision, Perkin Elmer).

[2] = system: hepatoma organoids isolated from liver cancer tissue; test: Effects of medium additives on proliferation of hepatoma organoids (Example 1); details: additive in basic medium at the final concentration; organoid diameters after 7 days compared with Basic Medium
Method: First, a basic medium containing initial medium was prepared. […] In this embodiment, the formulation of the basic medium is: DMEM/F12 medium (purchased from Corning)+100 μg/mL Primocin (purchased from InvivoGen, 0.2% (v/v), commercial product has a concentration of 50 mg/ml).
Different types of additives (see Table 1) were added to the basic medium to prepare culture mediums for hepatoma organoid with different components.
Tissue samples (intraoperative) of liver cancer solid tumor were obtained from patients by professional medical practitioner of professional medical institutions, and all patients have signed the informed consent. Intraoperative samples having the size of 0.25 cm3 were stored and transported using commercial tissue preservation solution (manufacturer: Miltenyi Biotec).
• 3.1. Tissue samples were transferred from the ultra-clean workbench to a culture dish, and the tissue with blood was removed. The tissue samples were rinsed twice with basic medium, and then were transferred to another culture dish and mechanically cut with a sterile scalpel into tissue blocks of 1×1×1 mm3 in size. • 3.2. The cut intraoperative tissues were aspirated into a 15 mL centrifuge tube, to which 5 mL of basic medium was added, fully mixed, and then centrifuged at 1500 rpm for 4 minutes. • 3.3. The supernatant was discarded, and the resultant was added with 1:3 mixture of basic medium and tissue digestion solution (the amount of tissue digestion solution added was about 10 mL tissue digestion solution for 1 g of tumor tissue). The samples were marked with names and numbers, sealed with sealing film, and then digested in a shaker (Zhichu Instrument ZQLY-180N) at 37° C., 300 rpm. The completion of digestion was determined via observation every 30 minutes, based on the existing of visible particles or not. • 3.4. After the digestion was completed, undigested tissue mass was filtered out through a […] filter mash. The tissue mass on the filter mash was rinsed into the centrifuge tube with basic medium to reduce cell loss. The resultant was centrifuged at 25° C., 1500 rpm for 4 minutes. • 3.5. […] If there were blood cells, 8 mL blood cell lysate (purchased from Sigma) was added in the resultant and fully mixed, lysed at 4° C. for 20 minutes, with inverting and mixing once during the process. The resultant was centrifuged at 25° C., 1500 rpm for 4 minutes. • 3.6. The supernatant was discarded and 2 mL basic medium was added to resuspend the cells for reserve.
• 4.1 Microscopic observation: a small amount of resuspended cells were plated in a culture dish, and the density and morphology of cancer cells were observed under a microscope (CNOPTEC, BDS400); • 4.2 Viable cell counting: 12 μL of the resuspended cell suspension was fully mixed with 12 μL of trypan blue staining solution (Manufacturer: Sangon Biotech (Shanghai) Co., Ltd.), and then 20 μL of the mixture was added into a cell counting plate (Manufacturer: Countstar, specifications: 50 pieces/box).
The primary liver cancer cells obtained in the above steps were resuspended with pre-cooled DMEM/F12 and counted. The cell density was diluted to 5-10×10^6 cells/mL and 400 μL of the diluted cell suspension was added with an equal volume of Matrigel matrix gel (Corning) and mixed gently and well. Then, the mixture was inoculated at 5 μL/well onto a 96-well plate. The inoculated plate was placed into an incubator for 30 minutes until Matrigel is completely coagulated. Then, the culture mediums as shown in Table 1 that have been come to room temperature in advance were added, respectively, and the culture mediums were renewed every three days for expansion and cultivation. After 7 days, the cultured organoids were photographed and the diameters of the organoids were measured and compiled, so as to compare the promoting effects of various factors on the proliferation of hepatoma organoids. As the experimental control, the basic medium without any additives was used.

[3] = system: hepatoma organoids (samples GL-003, GL-004); test: Effects of different concentrations of factors in the culture medium on proliferation of hepatoma organoids (Example 2); details: added to HC-3 medium lacking that factor; organoid diameter ratio to Blank Control after 10 days, FIGS. 1A-1K
Method: Primary liver cancer cells were obtained from intraoperative tissue samples (Nos. GL-003, GL-004) in accordance with the method described in Section (2), Example 1, and the organoids were cultured using the culture medium formulations as shown in Table 2 below.
When using the culture medium of Formulation 1, to a 96-well plate inoculated with organoids was added the prepared B27 in addition to the medium of Formulation 1, with 200 μL per well, such that the final concentrations of B27 were 1:25, 1:50 and 1:100, respectively; a well of Blank Control (BC) was set using the medium of Formulation 1. The final concentrations of other factors added in this series of culture mediums were the same as those in HC-3 culture medium. The experiments of Formulations 1-11 below were also conducted in the same way and will not be described in details.
(§1) When using the culture medium of Formulation 2, to a 96-well plate inoculated with organoids was added the prepared HGF in addition to the medium of Formulation 2, with 200 μL per well, such that the final concentrations of HGF were 1 ng/ml, 5 ng/mL and 25 ng/mL, respectively; a well of Blank Control (BC) was set using the medium of Formulation 2.
as §1, with “3,” for “2,”, “ITS cell culture additive” for “HGF”, “1:300, 1:100” for “1 ng/ml, 5 ng/mL”, “1:30,” for “25 ng/mL,”, “3.” for “2.”
as §1, with “4,” for “2,”, “Y27632” for “HGF”, “3 μM, 10 μM” for “1 ng/ml, 5 ng/mL”, “30 μM,” for “25 ng/mL,”, “4.” for “2.”
as §1, with “6,” for “2,”, “NRG1” for “HGF”, “ng/ml” for “ng/mL”, “ng/ml,” for “ng/mL,”, “6.” for “2.”
as §1, with “7,” for “2,”, “insulin” for “HGF”, “µL” for “μL”, “μg/mL, 3 μg/mL” for “ng/ml, 5 ng/mL”, “10 μg/mL,” for “25 ng/mL,”, “7.” for “2.”
as §1, with “8,” for “2,”, “EGF” for “HGF”, “2” for “1”, “6 ng/ml” for “5 ng/mL”, “18 ng/ml,” for “25 ng/mL,”, “8.” for “2.”
as §1, with “9,” for “2,”, “GlutaMAX” for “HGF”, “1:300, 1:100” for “1 ng/ml, 5 ng/mL”, “1:30,” for “25 ng/mL,”, “9. […]” for “2.”

| Compound | growth of organoids after drug treatment (photos) [1] | inhibitory effect on the growth of hepatoma organoids (drug inhibition rate) [1] | Level of promoting proliferation [2] | preferable amount in the culture medium for promoting organoid proliferation [3] |
| --- | --- | --- | --- | --- |
| CC[C@@]1(O)C[C@H](O[C@H]2C[C@H](N(C)C)[C@H](O[C@H]3C[C@H](O)[C@H](O[C@H]4CCC(=O)[C@H](C)O4)[C@H](C)O3)[C@H](C)O2)c2c(cc3c(c2O)C(=O)c2c(O)cccc2C3=O)[C@H]1C(=O)OC [Aclarubicin] | significantly inhibited | varied significantly |  |  |
| CC(C)C[C@H](NC(=O)[C@H](Cc1ccccc1)NC(=O)c1cnccn1)B(O)O [Bortezomib] | significantly inhibited | strong inhibitory effects |  |  |
| Cc1c[nH]c(-c2cnc(NCCNc3ccc(C#N)cn3)nc2-c2ccc(Cl)cc2Cl)n1 [CHIR99021] |  |  | − |  |
| CN1C(=O)C(c2c(F)cccc2F)N(C)c2nc(Nc3ccc(S(N)(=O)=O)cc3)ncc21 (stereo not shown) [Compound 1, 4-((7-(2,6-Difluorophenyl)-5,8-dimethyl-6-oxo-5,6,7,8-tetrahydropteridin-2-yl)amino)benzsulfamide] |  |  | + | 2.5 to 10 µM |
| Cc1cccc(-c2nn(C(=S)Nc3ccccc3)cc2-c2ccnc3ccccc23)n1 [Compound A8301] |  |  | − |  |
| C[C@@H](N)[C@H]1CC[C@H](C(=O)Nc2ccncc2)CC1 [Compound Y27632] |  |  | + | 3 to 30 µM |
| COc1cccc2c1C(=O)c1c(O)c3c(c(O)c1C2=O)C[C@@](O)(C(=O)CO)C[C@@H]3O[C@H]1C[C@H](N)[C@H](O)[C@H](C)O1 [Doxorubicin] |  | no inhibitory effect |  |  |
| Oc1ccc(-c2nc(-c3ccncc3)c(-c3ccc(F)cc3)[nH]2)cc1 [SB202190] |  |  | − |  |
| C[C@@H]1C[C@H]2[C@@H]3CCC4=CC(=O)C=C[C@]4(C)[C@@]3(F)[C@@H](O)C[C@]2(C)[C@@]1(O)C(=O)CO [dexamethasone] |  |  |  | 0.1 to 1 µM |
| basic fibroblast growth factor, bFGF: growth factor medium additive, supplier R&D |  |  | − |  |
| epidermal growth factor, EGF: growth factor medium additive, supplier R&D (NSDSECPLSHDGYCLHDGVCMYIEALDKYACNCVVGYIGERCQYRDLKWWELR; Epidermal growth factor; UniProt P01133 971-1023, looked up) |  |  | + | 2 to 18 ng/mL |
| hepatocyte growth factor, HGF: growth factor medium additive, supplier R&D |  |  | + |  |
| insulin: medium additive, supplier Peprotech |  |  | + | 1000 to 10000 ng/mL |
